Data: PubChem BioAssay (NCI)
“And” between values parts separate entries of the source, which are not always exact repeats. Equal values may be shown once.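 Assay format: 96-well plates, 48-hour exposure. GI50 is the concentration that inhibits growth by half. TGI denotes the concentration required for complete inhibition of growth.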

What was measured:
Test in all cases: growth of human tumour cells (NCI), 48 h
[1] = system: COLO 205 colon
[2] = system: HCC-2998 colon
[3] = system: HOP-92 NSCLC
[4] = system: M14 melanoma
[5] = system: OVCAR-3 ovarian
[6] = system: SK-MEL-28 melanoma
[7] = system: SN12C renal
[8] = system: SNB-75 CNS
[9] = system: SW-620 colon
[10] = system: U251 CNS

Compound	GI50 [1] [µM]	TGI [1] [µM]	GI50 [2]	TGI [2] [µM]	GI50 [3] [µM]	TGI [3] [µM]	GI50 [4] [µM]	TGI [4] [µM]	GI50 [5]	TGI [5]	GI50 [6] [µM]	TGI [6] [µM]	GI50 [7]	TGI [7] [µM]	GI50 [8] [µM]	TGI [8] [µM]	GI50 [9]	TGI [9] [µM]	GI50 [10]	TGI [10] [µM]
CC(=O)/C(Br)=C/c1ccc(Br)o1	7.55	20.9	19 µM	36.7	8.63	23.9	4.71	13.7	4.16 µM	14.5 µM	2.87	9.18	8.11 µM	26.7	10.3	33.3	2.1 µM	4.87	14.4 µM	27.8
O=C1C=C(OCC=C(C(F)(F)F)C(F)(F)F)c2ccccc2C1=O	2.11	4.73	1.84 µM	3.73	1.9	4.37	1.88	3.87	1.78 µM	3.39 µM	1.87	3.61	1.09 µM	2.37			1.92 µM	3.91	1.84 µM	3.83
CC(=O)Nc1ccc(S(=O)(=O)N=S(C)C)cc1		> 100		> 100		> 100		> 100		> 100 µM		> 100		> 100		> 100		> 100		> 100
Cc1ccc(Cl)c(NS(=O)(=O)c2ccc(-c3cnc(C4CC4)o3)cc2)c1	0.154	1.36	0.233 µM	14.6	2.3	20.5	0.0698	> 42.6	0.0674 µM	4.17 µM	2.77	> 58.5	0.415 µM	> 74.9	0.0232	0.164	0.0528 µM	> 100	0.142 µM	26.5
O=C(CCC(=O)Nc1cccc(C(F)(F)F)c1)CC(=O)c1ccc2ccccc2c1		> 100		> 100		> 100		> 100		> 100 µM				> 100				> 100		> 100
CC[C@H](C)[C@H](NC(=O)[C@H]1CCCCN1C)C(=O)N(C)[C@H](C[C@@H](OC(C)=O)c1cccc(C(=O)N[C@@H](Cc2ccccc2)C[C@H](C)C(=O)O)n1)C(C)C	0.00187	0.0143	0.00551 µM and 0.0025 µM	> 25			< 0.0025	< 0.0025	0.000389 µM and < 0.0025 µM	0.0165 µM and < 0.0025 µM		> 25	0.00417 µM and 0.0025 µM	> 25		> 25	0.000493 µM and 0.0025 µM	> 25	0.000744 µM and 0.0025 µM	> 25
COc1cc(/C=C(\NC(=O)c2ccccc2)c2nc3ncncc3[nH]2)cc(OC)c1OC		> 100		> 100		> 100		> 100		> 100 µM		> 100		> 100				> 100		> 100
COc1ccccc1/C=C\C(=O)C1COCN1 (stereo unspecified)		33.2						> 100		34.2 µM		36.6		35.1		41.3		19.4		28.1
CC1=CP(=O)(c2ccccc2)C=C(C)C1=C(Cl)Cl (stereo unspecified)		16.4		29.8				17.9		30.9 µM		23.4		81.8		> 100		16.6		19.8
COc1cc([N+](=O)[O-])c(S(=O)(=O)O)cc1-n1nc(C(=O)Nc2ccccc2)n[n+]1-c1cc(S(=O)(=O)[O-])c([N+](=O)[O-])cc1OC		> 100				> 100		> 100		> 100 µM		> 100		> 100		> 100		> 100		> 100
CN(C)Cc1ccc(NC(=O)c2cncc(C#Cc3cnc(N)c4ncccc34)c2)cc1F			9.83 µM	29.3	4.53	21.6			2.07 µM	3.68 µM	1.85	3.46	1.92 µM	3.56	1.38	5.73	2.23 µM	4	1.93 µM	3.89
CCCCOc1ccc(/C=N/Nc2cc(C)nc3ccc(Br)cc23)cc1	1.85	3.47	2.12 µM	3.73	1.54	3.11	1.74	3.2	2.06 µM	3.84 µM	1.72	3.13	1.74 µM	3.25	1.7	3.24			1.8 µM	3.27
O=C(N=c1nc(NC(=O)c2ccccc2)ss1)c1ccccc1		47.3		> 100				76.2		55.7 µM		> 100		66.6		> 100		> 100		37.1
O=C(Nc1cc(Cl)cc(Cl)c1)c1cccc(NC2=C(Cl)C(=O)N(Cc3ccccc3)C2=O)c1	31.5	> 100	37.1 µM	> 100	18.9	85.7	35.8	> 100	21.8 µM	> 100 µM	54.7	> 100	40 µM	> 100					15.6 µM	> 100
CC(=O)Nc1cc2cc(NS(=O)(=O)c3ccc(Cl)c(Cl)c3)ccc2oc1=O		93.7		> 100		60.5		> 100		> 100 µM		> 100		64.8				> 100		45.5
C#CC1(O)C(COP(=O)(O)OCC2OC(n3cc(F)c(=O)[nH]c3=O)CC2O)OC(n2ccc(N)nc2=O)C1O (stereo unspecified)	< 0.01	0.96	< 0.01 µM		0.196	> 46.4	< 0.0201	0.74	< 0.01 µM	0.746 µM	< 0.01	0.378	< 0.01 µM				< 0.01 µM	> 100	< 0.0273 µM	> 100
